Consider 27 compounds from patent US8232269B2, “Amide compounds useful in therapy” (Pfizer Inc., priority 2008, dated 2012).

The structures appear in SMILES notation. Some results are limits rather than exact numbers.

For this assay, the target named is T1, Progesterone Receptor (PR) (Homo sapiens, UniProt P06401).
T1 construct: endogenous in cells; host or cells: T47D human breast mammary carcinoma cells
T1 sequence (P06401 1-933): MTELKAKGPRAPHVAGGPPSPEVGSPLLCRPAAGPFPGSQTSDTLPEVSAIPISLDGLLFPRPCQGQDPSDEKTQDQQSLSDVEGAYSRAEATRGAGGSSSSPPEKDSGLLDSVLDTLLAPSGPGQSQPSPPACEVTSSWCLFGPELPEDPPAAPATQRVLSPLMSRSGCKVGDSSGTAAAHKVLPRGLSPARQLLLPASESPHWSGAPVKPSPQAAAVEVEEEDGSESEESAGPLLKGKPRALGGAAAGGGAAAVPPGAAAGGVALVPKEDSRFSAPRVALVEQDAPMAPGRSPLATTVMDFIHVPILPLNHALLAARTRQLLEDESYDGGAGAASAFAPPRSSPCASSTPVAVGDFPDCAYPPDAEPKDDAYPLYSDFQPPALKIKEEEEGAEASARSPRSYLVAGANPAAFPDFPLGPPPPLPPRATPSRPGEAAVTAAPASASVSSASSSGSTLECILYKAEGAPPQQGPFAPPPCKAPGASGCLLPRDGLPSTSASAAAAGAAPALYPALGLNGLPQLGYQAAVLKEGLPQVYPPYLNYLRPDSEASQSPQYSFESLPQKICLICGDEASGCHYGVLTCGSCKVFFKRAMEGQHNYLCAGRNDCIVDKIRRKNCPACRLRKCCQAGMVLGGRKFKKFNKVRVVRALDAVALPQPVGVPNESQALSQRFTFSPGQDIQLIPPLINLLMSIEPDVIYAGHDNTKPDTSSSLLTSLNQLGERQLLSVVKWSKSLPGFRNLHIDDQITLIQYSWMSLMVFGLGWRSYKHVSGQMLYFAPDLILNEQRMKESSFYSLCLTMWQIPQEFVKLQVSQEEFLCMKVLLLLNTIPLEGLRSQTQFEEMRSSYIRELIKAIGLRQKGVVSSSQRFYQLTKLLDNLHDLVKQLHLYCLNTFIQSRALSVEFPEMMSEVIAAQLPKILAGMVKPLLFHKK
The experiment in a line: In vitro functional assay for progesterone receptor (PR) antagonists: inhibition of progesterone-induced alkaline phosphatase expression in T47D cells. The note with it: antagonist format, 5 nM progesterone, Ki calculated from IC50 with the Cheng-Prusoff equation. It counts as cell-based. A digest of the protocol: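 Antagonist format: T47D cells (8750/well, phenol red-free DMEM + 5% CS-FCS) given half-log compound dilutions plus 5 nM progesterone (final), incubated overnight (≥16 h) at 37 °C. Alkaline phosphatase read by CSPD chemiluminescence after freeze-thaw lysis; 0.1 μM RU-486 final defines minimum.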
Take `CC(C)n1nc(-c2ccc(C#N)cc2)c(C2CC2)c1C(=O)N[C@@H]1CC[C@H](O)C1` [Example 31, 3-(4-Cyanophenyl)-4-cyclopropyl-N-[(1R,3S)-3-hydroxycyclopentyl]-1-isopropyl-1H-pyrazole-5-carboxamide]: the inhibition constant Ki was 36.3 nM.

As to `CC(C)n1nc(-c2ccc(C#N)cc2)c(C2CC2)c1C(=O)N[C@H]1C[C@@H](O)C1` [Example 32, 3-(4-Cyanophenyl)-4-cyclopropyl-N-(cis-3-hydroxycyclobutyl)-1-isopropyl-1H-pyrazole-5-carboxamide], the Ki was 34.6 nM.

On to `CC[C@H](C)NC(=O)c1c(C2CC2)c(-c2ccc(C#N)cc2)nn1C(C)C` [Example 33, 3-(4-Cyanophenyl)-4-cyclopropyl-1-isopropyl-N-[(1S)-1-methylpropyl]-1H-pyrazole-5-carboxamide], for which the Ki is 7.11 nM.

Take `CC(C)n1nc(-c2ccc(C#N)cc2)c(C2CC2)c1C(=O)NCC(C)(C)C` [Example 34, 3-(4-Cyanophenyl)-4-cyclopropyl-N-(2,2-dimethylpropyl)-1-isopropyl-1H-pyrazole-5-carboxamide]: the Ki is 18.9 nM.

Regarding `CC[C@@H](C)NC(=O)c1c(C2CC2)c(-c2ccc(C#N)cc2)nn1C(C)C` [Example 35, 3-(4-Cyanophenyl)-4-cyclopropyl-1-isopropyl-N-[(1R)-1-methylpropyl]-1H-pyrazole-5-carboxamide], the Ki was 11.2 nM.

As to `CCNC(=O)CNC(=O)c1c(C2CC2)c(-c2ccc(C#N)cc2)nn1C(C)C` [Example 42, 3-(4-Cyanophenyl)-4-cyclopropyl-N-[2-(ethylamino)-2-oxoethyl]-1-isopropyl-1H-pyrazole-5-carboxamide], the Ki was 27.3 nM.

For `CC(C)n1nc(-c2ccc(C#N)cc2)c(C2CC2)c1C(=O)NC1CCOCC1` [Example 43], the Ki is 26 nM.

For `CNC(=O)c1c(C2CC2)c(-c2ccc(C#N)cc2)nn1C(C)C` [Example 46, 3-(4-Cyanophenyl)-4-cyclopropyl-1-isopropyl-N-methyl-1H-pyrazole-5-carboxamide], the Ki is greater than 2010 nM.

Take `CC(C)n1nc(-c2ccc(C#N)cc2)c(C2CC2)c1C(=O)NCC(F)(F)F` [Example 48, 3-(4-Cyanophenyl)-4-cyclopropyl-1-isopropyl-N-(2,2,2-trifluoroethyl)-1H-pyrazole-5-carboxamide]: the Ki is 5.27 nM.

On to `CC(C)n1nc(-c2ccc(C#N)cc2)c(C2CC2)c1C(=O)NCC1CC1` [Example 49, 3-(4-Cyanophenyl)-4-cyclopropyl-N-(cyclopropylmethyl)-1-isopropyl-1H-pyrazole-5-carboxamide], for which the Ki was 4.94 nM.

On to `CC(C)n1nc(-c2ccc(C#N)cc2)c(C2CC2)c1C(=O)NC1CCC1` [Example 50, 3-(4-Cyanophenyl)-N-cyclobutyl-4-cyclopropyl-1-isopropyl-1H-pyrazole-5-carboxamide], for which the Ki is 3.59 nM.

Turning to `CC(C)n1nc(-c2ccc(C#N)cc2)c(C2CC2)c1C(=O)N(C)CC1CC1` [Example 51, 3-(4-Cyanophenyl)-4-cyclopropyl-N-(cyclopropylmethyl)-1-isopropyl-N-methyl-1H-pyrazole-5-carboxamide], the Ki is 4.65 nM.

On to `CC(C)n1nc(-c2ccc(C#N)cc2)c(C2CC2)c1C(=O)NC1CCOC1` (stereo not drawn) [Example 52, 3-(4-Cyanophenyl)-4-cyclopropyl-1-isopropyl-N-(tetrahydrofuran-3-yl)-1H-pyrazole-5-carboxamide], for which the Ki was 5.7 nM.

Turning to `CC(C)n1nc(-c2ccc(C#N)cc2)c(C2CC2)c1C(=O)NC[C@H]1CCCO1` [Example 53, 3-(4-Cyanophenyl)-4-cyclopropyl-1-isopropyl-N-[(2R)-tetrahydrofuran-2-ylmethyl]-1H-pyrazole-5-carboxamide], the Ki is 7.38 nM.

Turning to `CC(C)n1nc(-c2ccc(C#N)cc2)c(C2CC2)c1C(=O)NCCC1CC1` [Example 54, 3-(4-Cyanophenyl)-4-cyclopropyl-N-(2-cyclopropylethyl)-1-isopropyl-1H-pyrazole-5-carboxamide], the Ki was 8.45 nM.

As to `CC(C)n1nc(-c2ccc(C#N)cc2)c(C2CC2)c1C(=O)NC[C@@H]1CCCO1` [Example 55, 3-(4-Cyanophenyl)-4-cyclopropyl-1-isopropyl-N-[(2S)-tetrahydrofuran-2-ylmethyl]-1H-pyrazole-5-carboxamide], the Ki is 13.8 nM.

Turning to `CC(C)n1nc(-c2ccc(C#N)cc2)c(C2CC2)c1C(=O)NC(C)(C)CO` [Example 56, 3-(4-Cyanophenyl)-4-cyclopropyl-N-(2-hydroxy-1,1-dimethylethyl)-1-isopropyl-1H-pyrazole-5-carboxamide], the Ki is 82.6 nM.

Consider `CC(C)n1nc(-c2ccc(C#N)cc2)c(C2CC2)c1C(=O)NC1CC1` [Example 58, 3-(4-Cyanophenyl)-N,4-dicyclopropyl-1-isopropyl-1H-pyrazole-5-carboxamide], for which the Ki is 6.87 nM.

Regarding `COCCNC(=O)c1c(C2CC2)c(-c2ccc(C#N)cc2)nn1C(C)C` [Example 59, 3-(4-Cyanophenyl)-4-cyclopropyl-1-isopropyl-N-(2-methoxyethyl)-1H-pyrazole-5-carboxamide], the Ki is 7.84 nM.

Consider `CC(C)n1nc(-c2ccc(C#N)cc2)c(C2CC2)c1C(=O)NC(C)(C)C` [Example 60, N-tert-Butyl-3-(4-cyanophenyl)-4-cyclopropyl-1-isopropyl-1H-pyrazole-5-carboxamide], for which the Ki was 42.1 nM.

Consider `CC(=O)CNC(=O)c1c(C2CC2)c(-c2ccc(C#N)cc2)nn1C(C)C` [Example 61, 3-(4-Cyanophenyl)-4-cyclopropyl-1-isopropyl-N-(2-oxopropyl)-1H-pyrazole-5-carboxamide], for which the Ki is 8.29 nM.

`Cc1cc(-c2nn(C(C)C)c(C(=O)NCC3CC3)c2C)ccc1C#N` [Example 62, 3-(4-Cyano-3-methylphenyl)-N-(cyclopropylmethyl)-1-isopropyl-4-methyl-1H-pyrazole-5-carboxamide]: the Ki was 3.09 nM.

In the case of `Cc1cc(-c2nn(C(C)C)c(C(=O)NC[C@H](C)O)c2C)ccc1C#N` [Example 63, 3-(4-Cyano-3-methylphenyl)-N-[(2S)-2-hydroxypropyl]-1-isopropyl-4-methyl-1H-pyrazole-5-carboxamide], the Ki is 6.24 nM.

Regarding `Cc1cc(-c2nn(C(C)C)c(C(=O)NC[C@@H](C)O)c2C)ccc1C#N` [Example 64, 3-(4-Cyano-3-methylphenyl)-N-[(2R)-2-hydroxypropyl]-1-isopropyl-4-methyl-1H-pyrazole-5-carboxamide], the Ki is 10.9 nM.

As for `CCNC(=O)c1c(C)c(-c2ccc(C#N)c(C)c2)nn1C(C)C` [Example 65, 3-(4-Cyano-3-methylphenyl)-N-ethyl-1-isopropyl-4-methyl-1H-pyrazole-5-carboxamide], the Ki was 3.55 nM.

As for `Cc1cc(-c2nn(C(C)C)c(C(=O)NC(C)C)c2C)ccc1C#N` [Example 66, 3-(4-Cyano-3-methylphenyl)-N,1-diisopropyl-4-methyl-1H-pyrazole-5-carboxamide], the Ki was 3.56 nM.

Turning to `Cc1cc(-c2nn(C(C)C)c(C(=O)NC3CC3)c2C)ccc1C#N` [Example 67, 3-(4-Cyano-3-methylphenyl)-N-cyclopropyl-1-isopropyl-4-methyl-1H-pyrazole-5-carboxamide], the Ki was 4.4 nM.

What is called Ki is a measure of affinity in units of concentration, obtained from inhibition or displacement.
